Laboratory results from patent publication US6911446B2, “Methods of modulating serine/threonine protein kinase function with quinazoline-based compounds” (Sugen, Inc., priority 1997, dated 2005).

Key:
EGF Receptor = target: T1, EGF Receptor (Homo sapiens, UniProt P00533); test: EGF Receptor kinase activity in whole cells (EGFR-NIH3T3 assay, EGFR ELISA); type: cell-based; conditions: Table 5, EGFR ELISA assay in whole cells (EGFR-NIH3T3); read-out: IC50 A549
T1 construct: expressed in transfected cells; host or cells: NIH3T3 (EGFR-NIH3T3)
T1 sequence (P00533 25-1210): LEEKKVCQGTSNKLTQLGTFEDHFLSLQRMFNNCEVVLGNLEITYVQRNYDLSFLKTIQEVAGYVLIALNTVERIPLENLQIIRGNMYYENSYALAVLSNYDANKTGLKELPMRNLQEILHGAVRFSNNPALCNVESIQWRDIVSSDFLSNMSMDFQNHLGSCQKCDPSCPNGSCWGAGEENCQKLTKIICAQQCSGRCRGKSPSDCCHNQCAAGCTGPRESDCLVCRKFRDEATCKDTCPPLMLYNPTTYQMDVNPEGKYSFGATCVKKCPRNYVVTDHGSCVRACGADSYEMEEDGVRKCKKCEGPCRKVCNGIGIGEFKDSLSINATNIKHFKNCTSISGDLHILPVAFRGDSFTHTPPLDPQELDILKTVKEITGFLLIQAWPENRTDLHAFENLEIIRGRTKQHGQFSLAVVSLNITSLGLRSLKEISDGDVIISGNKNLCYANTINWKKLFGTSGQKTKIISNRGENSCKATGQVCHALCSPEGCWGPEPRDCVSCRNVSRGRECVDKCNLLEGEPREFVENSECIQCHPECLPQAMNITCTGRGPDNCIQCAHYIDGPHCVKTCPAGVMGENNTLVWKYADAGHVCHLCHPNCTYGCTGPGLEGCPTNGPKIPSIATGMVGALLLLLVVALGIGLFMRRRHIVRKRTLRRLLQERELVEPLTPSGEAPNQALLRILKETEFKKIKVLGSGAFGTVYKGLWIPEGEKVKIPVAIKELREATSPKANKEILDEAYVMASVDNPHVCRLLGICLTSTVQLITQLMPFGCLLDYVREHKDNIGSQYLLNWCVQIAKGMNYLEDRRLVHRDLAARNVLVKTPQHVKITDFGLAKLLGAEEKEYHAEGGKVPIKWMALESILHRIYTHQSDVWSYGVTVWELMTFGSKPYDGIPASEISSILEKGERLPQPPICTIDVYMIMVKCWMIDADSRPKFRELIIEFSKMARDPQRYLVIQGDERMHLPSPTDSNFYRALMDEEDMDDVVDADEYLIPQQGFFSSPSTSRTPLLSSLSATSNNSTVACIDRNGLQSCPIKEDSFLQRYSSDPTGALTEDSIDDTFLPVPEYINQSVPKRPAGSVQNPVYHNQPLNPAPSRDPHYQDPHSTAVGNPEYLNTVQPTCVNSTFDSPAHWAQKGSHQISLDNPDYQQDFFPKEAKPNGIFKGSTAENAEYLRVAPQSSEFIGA
Protocol: EGF Receptor kinase activity (EGFR-NIH3T3 assay) in whole cells was measured as described in detail in PCT Publication WO9640116, filed Jun. 5, 1996, by Tang et al., and entitled “Indolinone Compounds for the Treatment of Disease,” incorporated herein by reference in its entirety, including any drawings.

[1] = test system: A549 human lung carcinoma cells; test: Growth of A549 cells (SRB); type: cell-based
Protocol: The following assay measures growth rates for A549 cells. The purpose of the assay is to determine the effects of compounds on the growth of A549 human lung carcinoma cells. A549 cells are readily accessible from commercial sources, such as ATCC (CCL185).
• 96-well flat bottom sterile plates • 96-well round bottom sterile plates • sterile 25 mL or 100 mL reservoir • pipets, multi-channel pipetman • sterile pipet tips • sterile 15 mL and 50 mL tubes Reagents: • 0.4% SRB in 1% acetic acid • 10 mM Tris base • 10% TCA • 1% acetic acid • sterile DMSO (Sigma) • compound in DMSO (100 mM or less stock solution) • Trypsin-EDTA (GIBCO BRL) Cell Line and Growth Medium: • A549 human lung carcinoma cells (ATCC CCL185) • 10% fetal calf serum in Ham's F12-K Protocol: Day 0: Cell Plating:
This part of assay is carried out in a laminar flow hood. • 1. Trypsinize cells. Transfer 200 μL of cell suspension to 10 mL of isotone. Count cells with a Coulter Counter. • 2. Dilute cells in growth medium to 20,000 cell/mL. Transfer 100 μL of cells to each well in a 96-well flat bottom plate to give 2000 cells/well. • 3. Use half of plate (4 rows) for each compound and quadruplicate wells for each compound concentration, and a set of 4 wells for medium control. • 4. Gently shake plates to allow for uniform attachment of the cells. • 5. Incubate the plates at 37° C. in a 10% CO2 incubator. Day 1: Addition of Compound:
This part of assay is carried out in a laminar flow hood. • 1. In a 96 well-round bottom plate, add 120 μL of growth medium containing 2×final %DMSO found in highest screening concentration of compound to columns 1 to 11. For example, if the highest screening concentration is 100 μM, and this is made from a 100 mM stock, 1×DMSO is 0.1%, so 2×DMSO is 0.2%. This plate is used to titrate out the compound, 4 rows per compound. • 2. In a sterile 15 mL tube, make a 2×solution of the highest screening concentration of compound in growth medium plus 2×DMSO. 1 mL per cell line is needed. The starting concentration of the compound is usually 100 μM but this concentration may vary depending upon the solubility of the compound. • 3. Transfer 240 μL of the 2×starting compound solution to quadruplicate wells in column 12 of the 96-well round bottom plate. Do 1:2 serial dilutions across the plate from right to left by transferring 120 μL from column 12 to column 11, column 11 to 10 and so on through column 2. Transfer 100 μL of compound dilutions, and 100 μL of medium in column 1, onto 100 μL medium on cells in corresponding wells of 96-well flat bottom plate. Total volume per well should be 200 μL. • 4. Return the plate to the incubator and incubate for 3 days. Day 5: Development of Assay
This part of assay is carried out on the bench. • 1. Aspirate or pour off medium. Add 200 μL cold 10% TCA to each well to fix cells. Incubate plate for at least 60 min. at 4° C. • 2. Discard TCA and rinse wells 5 times with tap water. Dry plates upside down on paper towels. • 3. Stain cells with 100 μL/well 0.4% SRB for 10 min. • 4. Pour off SRB and rinse wells 5 times with 1% acetic acid. Dry plates completely upside down on paper towels. • 5. Solubilize dye with 100 μL/well 10 mM Tris base for 5-10 min. on shaker. • 6. Read plates on Dynatech ELISA Plate Reader at 570 nm with reference at 630 nm.

IC50 (EGF Receptor) [µM]	IC50 [1] [µM]	Compound
> 100	–	COc1ccc(Oc2cccc3nc(N)nc(N)c23)cc1 [Compound A-6, 2,4-Diamino-5-(4-methoxyphenoxy)quinazoline]
75.1	32	Nc1ncnc2cccc(Oc3ccc(OCc4ccccc4)cc3)c12 [Compound A-28, 4-Amino-5-(4-benzyloxyphenoxy)quinazoline]
> 100	26	COc1ccccc1Oc1cccc2nc(N)nc(N)c12 [Compound A-22, 2,4-Diamino-5-(2-methoxyphenoxy)quinazoline]
> 100	17.7	Nc1nc(N)c2c(Oc3ccc(F)cc3)cccc2n1 [Compound A-7, 2,4-Diamino-5-(4-fluorophenoxy)quinazoline]
24.6	15.9	Nc1nc(N)c2c(Oc3ccccc3)cccc2n1 [Compound A-1, 2,4-Diamino-5-phenoxyquinazoline]
17.2	18	COc1cccc(Oc2cccc3nc(N)nc(N)c23)c1 [Compound A-23, 2,4-Diamino-5-(3-methoxyphenoxy)quinazoline]
–	77.9	CC(C)(C)c1ccc(Oc2cccc3nc(N)nc(N)c23)cc1 [Compound A-8, 2,4-Diamino-5-(4-tert-butylphenoxy)quinazoline]
